Experimental data: US20020198161A1, “THERAPEUTIC USES OF ANTIOXIDANTS” (priority 1997, published 2002)
“Also recorded” adds a separate entry of the source.

Tests used:
MEF p53+/+ cells = test: Apoptosis / viability in normal primary MEF (MEF p53+/+); format: cell-based, mouse; settings: for apoptosis in normal counterparts: normal MEF, 50 μM DMP, 20 mM OTC
Description: (§1) Cell Lines. MEF primary mouse embryo fibroblast cells (passage <5) and E1A/Ha-ras-transformed MEF were as in Lowe (18). The 308 papilloma cell line, which has a mutant Ha-ras allele (Strickland, J. E. et al., 1988, Cancer Res. 48) and wild-type p53 (Liu, M. et al., 1995, Oncogene 10:1955-1960) were also utilized. The (Rostein, J. B. et al., 1988, Mutation Research 202:421-427) 1 mouse embryo fibroblast cell line was as in Levine (Harney, D. M. et al., 1991, Genes Dev. 5:2375-2385). BALB/c 3T3 A31 cells were obtained from the American Type Culture Collection (Bethesda, Md.). 308 papilloma cells were maintained in 0.05 mM Ca2+ EMEM medium with 10% fetal bovine serum, and all other cells were grown in DMEM medium with 10% heat-inactivated fetal bovine serum. Cell culture confluence was maintained below 80%.
(§2) Chemicals and Cell Treatments. All chemicals were obtained from Sigma, except for Trolox which was purchased from Aldrich. These compounds were freshly dissolved in medium and adjusted to neutral pH if necessary, or (for vitamin E acetate, Trolox, and BHA) first dissolved in ethanol and added to the medium. Cell viability was determined by trypan blue exclusion as a measure of cell death independent of any growth suppression by p53.
(§3) Apoptosis Assays. For fixed cells, apoptosis-associated DNA strand breaks were visualized by fluorescent in situ end-labeling as previously described (Ziegler, A. et al., 1994, Nature 372:773-776). For isolated DNA, DNA fragmentation analysis was performed (Lowe, S. W. et al., 1993, Cell 74:957-967).
(§4) For flow cytometry analysis, approximately 10^6 cells per sample were washed with ice-cold PBS and fixed in 95% ethanol. Cells were then resuspended in 1 mg/ml RNase (Sigma) for 30 min at 37° C. and stained with 0.05 mg/ml propidium iodide (Sigma) for 1 h on ice. Flow cytometric analysis was performed with a FACS Vantage flow cytometer (Becton-Dickinson). Cells were excited at 488 nm and the emission was detected through a 630/22 nm band pass filter. A minimum of 10,000 cells were analyzed for each sample. Cell cycle analysis was performed using the Modfit 5.2 software (Verity Software House). […] Cellular debris was gated out using the electronic threshold.

tMEF p53+/+ cells [1] = test: Apoptosis / viability in E1A/Ha-ras-transformed MEF (tMEF p53+/+); format: cell-based, mouse; settings: for apoptosis in E1A/Ha-ras transformed cells (viability, DNA fragmentation, flow cytometry): 50 μM DMP, 20 mM OTC, 24-48 h; for effect on cell viability (trypan blue exclusion) / apoptosis (DNA analysis): p53+/+ tMEF; for effect on cell viability (trypan blue exclusion): 48 h, tocopherol acetate 200 μM, Trolox 200 μM, BHA 100 μM; for apoptosis (DNA analysis): chain-breaking antioxidants
Procedure: as §1, with “The 308 papilloma cell line, which has a mutant Ha-ras allele (Strickland, J. E. et al., 1988, Cancer Res. 48) and wild-type p53 (Liu, M. et al., 1995, Oncogene 10:1955-1960) were also utilized.” left out
as §2, §3, §4

[2] = system: p53-/- tMEF and MEF cells; test: Apoptosis / viability in transformed and normal primary cells from p53-/- null mice; format: cell-based, mouse; settings: for p53 requirement of apoptosis induction: p53-/- versus p53+/+ transformed MEF
Description: as §1, §2, §3

[3] = system: p53+/+ colorectal carcinoma cell line RKO; test: Apoptosis in colorectal carcinoma cell line RKO; format: cell-based; settings: human p53+/+ RKO cells
Procedure: as §3

tMEF p53+/+ cells [4] = test: GSH and total thiols in tMEF p53+/+ cells (GSH-400 kit); format: cell-based, mouse; settings: 20 μM BSO 1 h preincubation then 20 μM BSO + 20 mM NAC 5 h
Procedure: FIG. 6. Analysis of GSH, total thiols, and viability in tMEF p53+/+ cells treated with BSO and/or NAC. Cells treated with both compounds were preincubated with medium containing 20 μM BSO for 1 h and then treated with medium containing 20 μM BSO and 20 mM NAC for 5 h (GSH and thiols) or for 24 h (viability).
Measurement of GSH and Total Thiols. Cells (4×106) were harvested from each sample. The GSH-400 kit (R & D Systems) was used following the manufacturer's instructions.

p53 = p53 induction in BALB/c 3T3 A31 fibroblast cell line; format: cell-based, murine; settings: BALB/c 3T3 A31 cells
Description: as §1
(§5) Northern and Western Blot Analysis. Northern and Western blot analysis were performed as previously described (Liu, M. et al., 1995, Oncogene 10:1955-1960).

p53 protein [5] = test: p53 induction in normal MEF p53+/+ cells (immunohistochemical staining); format: cell-based, mouse; settings: 20 mM NAC, 5 h
Procedure: FIGS. 2A-2C. p53-dependent apoptosis by NAC is selective for transformed cells. FIG. 2A: viability of normal (MEF) and transformed (tMEF) cells measured by trypan blue exclusion after treatment with NAC for 24 h. FIG. 2B: analysis of DNA fragmentation from tMEF cells exposed to NAC. FIG. 2C: immunohistochemical staining of p53 protein in p53+/+ MEF cells after 5 h exposure to 20 mM NAC.
as §1

p53 protein [6] = test: p53 protein synthesis rate in 308 cells (35S-methionine labeling); format: cell-based, murine; settings: 20 mM NAC, 5 h post-treatment
Procedure: Analysis of p53 Protein Synthesis. Cultures of 308 cells were treated in the absence or presence of 20 mM NAC. At 4.5 h post-treatment, cells were incubated with methionine-free medium containing 2% dialyzed and chelexed fetal bovine serum for 0.5 h. At 5 h post-treatment, biosynthetic labeling was initiated by adding 200 μCi of ^35S-methionine per ml of methionine-free medium. The labeling was terminated at 5, 10, or 15 min. Throughout the experiment, 20 mM NAC was included in the group of NAC-treated cells. Cells were then washed twice with 10 ml of ice-cold PBS, scraped, and pelleted by centrifugation at 1500 rpm at 4° C. for 5 min. The supernatant was removed, and the cell pellet was lysed in ice-cold cell lysis buffer (0.5% Triton X-100, 300 mM NaCl, 50 mM Tris-HCl, pH 7.4, 10 μg/ml leupeptin, 0.1 mM phenylmethylsulfonyl fluoride). Aliquots of cell lysate containing equal amounts of protein (30 μg) were subjected to immunoprecipitation analysis with anti-p53 antibody PAb122 (25) and Protein A-agarose (GIBCO-BRL). The immunoprecipitated proteins were resolved on a 10% SDS-PAGE gel. The levels of synthesized p53 protein were then determined by densitometric scanning using a Hewlett-Packard ScanJet 4P Scanner and the NIH image 1.59 analysis software.

DNA = settings: literature references; cited from earlier work
308 papilloma cells [7] = test: Cell viability by trypan blue exclusion in 308 papilloma cells; format: cell-based, murine; settings: NAC dose range
Description: as §1, §2

p53 protein [8] = test: p53 protein level in 308 cells (Western blot); format: cell-based, murine; settings: dose-dependent, within 3 to 8 hours
Description: as §1, §5

308 papilloma cells [9] = test: Apoptosis-associated DNA strand breaks, fluorescent in situ end-labeling, 308 cells; format: cell-based, murine; settings: 20 mM NAC, 24 h
Description: as §1, §3

p53 mRNA = p53 mRNA steady-state level in 308 cells (Northern blot); format: cell-based, murine; settings: 20 mM NAC, 5 h
Description: as §1, §5

OCC(S)CS (centres unmarked) [DMP, 2,3-dimercaptopropanol]
apoptosis in normal counterparts (MEF p53+/+ cells): not in their normal counterparts
doses at which active (apoptosis induction) (tMEF p53+/+ cells [1]; transformed MEF): ≥ 50 µM
apoptosis in E1A/Ha-ras transformed cells (viability, DNA fragmentation, flow cytometry) (tMEF p53+/+ cells [1]; transformed MEF): selectively induced apoptosis
p53 requirement of apoptosis induction [2]: required p53
apoptosis induction [3]: induced apoptosis

O=C(O)CCCC[C@@H]1CCSS1 (racemic) [lipoic acid]
apoptosis in normal counterparts (MEF p53+/+ cells): behaved similarly
apoptosis in E1A/Ha-ras transformed cells (viability, DNA fragmentation, flow cytometry) (tMEF p53+/+ cells [1]; transformed MEF): behaved similarly
p53 requirement of apoptosis induction [2]: required p53
apoptosis induction [3]: induced apoptosis

Cc1c(C)c2c(c(C)c1O)CCC(C)(C(=O)O)O2 (centres unmarked) [Trolox]
effect on cell viability (trypan blue exclusion) (tMEF p53+/+ cells [1]): little effect on cell viability; also recorded: do not induce cell death
apoptosis (DNA analysis) (tMEF p53+/+ cells [1]): no apoptosis occurred; also recorded: did not induce p53-dependent apoptosis

O=C1N[C@H](C(=O)O)CS1 [OTC, L-2-oxo-4-thiazolidinecarboxylate]
apoptosis in normal counterparts (MEF p53+/+ cells): not in their normal counterparts
apoptosis in E1A/Ha-ras transformed cells (viability, DNA fragmentation, flow cytometry) (tMEF p53+/+ cells [1]; transformed MEF): selectively induced apoptosis
p53 requirement of apoptosis induction [2]: required p53
apoptosis induction [3]: induced apoptosis

CCCCS(=N)(=O)CCC(N)C(=O)O [BSO, L-buthionine sulfoximine]
effect on NAC-induced apoptosis (viability) (tMEF p53+/+ cells [1]; tMEF p53+/+, 20 μM BSO + 20 mM NAC 24 h): did not block NAC-induced apoptosis; also recorded: cannot block NAC-induced apoptosis
effect on induction of cellular GSH by NAC (tMEF p53+/+ cells [4]): completely blocks induction of cellular GSH by NAC; also recorded: inhibits cellular GSH elevation by NAC
effect on induction of total thiols by NAC (tMEF p53+/+ cells [4]): only partially blocking the induction of total thiols

CC(=O)N[C@@H](CS)C(=O)O [NAC, N-acetylcysteine]
p53 induction (p53): induced p53
NAC-induced apoptosis (viability) (MEF p53+/+ cells; normal MEF p53+/+, NAC 24 h): strikingly resistant
NAC-induced apoptosis (viability, DNA fragmentation) (tMEF p53+/+ cells [1]; tMEF p53+/+, NAC 24 h): sensitive to NAC-induced apoptosis
p53 induction (p53 protein [5]): p53 was induced
elevation of biosynthetic rate of p53 protein (p53 protein [6]): ~5 fold
induction of DNA damage (DNA): does not induce DNA damage
NAC-induced apoptosis (viability) ([2]; transformed and normal primary cells from p53-/- null mice, NAC 24 h): deficient in apoptosis induced by NAC
cell death (cell viability by trypan blue exclusion) (308 papilloma cells [7]): dose-dependent cell death
increase of p53 protein levels (p53 protein [8]): 5- to 10 fold
in situ end-labeling of DNA strand-breaks (apoptosis) (308 papilloma cells [9]): showing in situ end-labeling of DNA strand-breaks
apoptosis induction [3]: induced apoptosis
steady-state level of p53 mRNA vs control (p53 mRNA): no major difference

COc1ccc(O)c(C(C)(C)C)c1 [BHA]
effect on cell viability (trypan blue exclusion) (tMEF p53+/+ cells [1]): little effect on cell viability; also recorded: do not induce cell death
apoptosis (DNA analysis) (tMEF p53+/+ cells [1]): no apoptosis occurred

CC(=O)Oc1c(C)c(C)c2c(c1C)CCC(C)(CCC[C@H](C)CCC[C@H](C)CCCC(C)C)O2 (some centres unmarked) [vitamin E acetate, tocopherol acetate]
effect on cell viability (trypan blue exclusion) (tMEF p53+/+ cells [1]): little effect on cell viability
effect on cell viability (trypan blue exclusion) (tMEF p53+/+ cells [1]; listed as tocopherol acetate): do not induce cell death
apoptosis (DNA analysis) (tMEF p53+/+ cells [1]): no apoptosis occurred; also recorded: did not induce p53-dependent apoptosis
